Assay results published in patent publication US11713318B2, “Short conjugated oligoelectrolytes and uses thereof” (The Regents Of The University Of California, priority 2018, dated 2023).
Where two headings read alike, the source gives them in different places.

Assays:
[1] = system: S. aureus (MRSA) (clinical isolate); assay: MIC panel of pathogens, Table 4; type: cell-based; details: Staphylococcus aureus, clinical isolate from Cottage Hospital
[2] = system: RAW264.7 (ATCC TIB-71) cells; assay: Cytotoxicity, MTT assay; type: cell-based, murine; details: Mus musculus, RAW264.7; RAW 264.7; MTT, 24 hours incubation; read-out: IC50
Procedure: Before removing the frozen cell stocks from liquid nitrogen, culture medium was pre-warmed to 37° C. The frozen tube was then removed from liquid nitrogen and placed into a 37° C. water bath and shaken gently to thaw the cell stock as quickly as possible. A small portion of the pre-warmed culture medium was added to the cell solution. The cell suspension was then centrifuged at 1000 r/min for 3 minutes. The supernatant was discarded and the cells were resuspended in fresh culture medium.
NIH 3T3 (ATCC CRL-1658) and Hep G2 (ATCC HB-8065) cells were cultured with DMEM+10% FBS in 100 mm dishes. Cells were lifted for subculture or testing when confluence reached ˜60% by treating with 1× trypsin (incubated for 3 min at 37° C.). J774 (ATCC TIB-67) cells were cultured with DMEM+10% FBS in 100 mm dishes. Cells were lifted for subculture or testing when confluence reached ˜80% using a cell scraper. RAW264.7 (ATCC TIB-71) cells were cultured with DMEM+10% heat-inactivated FBS+1% pen/strep in T75 flasks. Cells were lifted for subculture or testing when confluence reached ˜80% using a cell scraper.
• 1. Cells were lifted and resuspended in culture medium. The number of cells in the cell suspension was determined using an auto-cell counter: 10 μL of the cell suspension was mixed with 10 μL 1× trypan blue (filtered with 0.2 μm PES filter) and the mixture was loaded onto a cell counting slide. Based on the concentration of viable cells, the cell suspension was further diluted to achieve the desired density. • 2. […] The 96-well plates were analyzed in a plate reader using the following method: shake for 5 minutes, wait for 30 seconds, and measure absorbance at 570 nm. • 8. Data processing: The average of background Abg was calculated from the blank column. […] The average A. and standard deviation Se of each experimental group and the average Ac and standard deviation Sc for control group (with pure culture medium incubation) were then calculated. The cell viability was determined as Ae/Ac×100% and corresponding error as Se/Ae×100%. […]

Cytotoxicity, MTT assay = type: cell-based; details: at the concentration given as IC50 bound, read-out: cell viability at the highest or lowest test concentration
Outline: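 Cells seeded at 5000/well (NIH 3T3) or 10000/well (Hep G2, J774, RAW264.7) in DMEM+10% FBS, incubated overnight, then exposed 24 h to 2-fold serial dilutions (9 concentrations, six replicates each). MTT added for 4 h, formazan dissolved in DMSO, A570 read. Viability expressed as blank-corrected absorbance relative to medium-only control.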

CCCCCC[N+](C)(C)CCCCCCOc1cc(/C=C/c2cc(OCCCCCC[N+](C)(C)CCCCCC)cc(OCCCCCC[N+](C)(C)CCCCCC)c2)cc(OCCCCCC[N+](C)(C)CCCCCC)c1 [Formula E]
MIC [1]: 1 µg/mL
IC50 [2]: 3.76 µg/mL

C[N+](C)(C)CCCCOc1cc(/C=C/c2ccc(/C=C/c3cc(OCCCC[N+](C)(C)C)cc(OCCCC[N+](C)(C)C)c3)cc2)cc(OCCCC[N+](C)(C)C)c1.[I-].[I-].[I-].[I-] [Formula F]
viability at 24 h (Cytotoxicity, MTT assay; human, Hep G2 (ATCC HB-8065) cells, Hep G2): 100%
viability at 24 h (Cytotoxicity, MTT assay; mouse, J774 (ATCC TIB-67) cells): 51%
viability at 24 h (Cytotoxicity, MTT assay; mouse, NIH 3T3 (ATCC CRL-1658) cells, NIH 3T3): 56.2%
